Measurements reported in US9243227B2, “Cytotoxic T lymphocyte” (Mie University, priority 2004, dated 2016).

Columns and labels:
[1] = test system: CD8-positive cells of wild-type C57BL6 mice; assay: IFN-gamma ELISPOT assay, same experiment in wild-type mice; assay type: cell-based, mouse; settings: same experiment as in HHDA2402 mice
Description: (§1) A 96-well nitrocellulose ELISPOT plate (trade name: MAHA 54510, manufactured by Millipore Corporation) was incubated overnight with 2 μg/milliliter anti-mouse IFN-gamma mAb (trade name: clone R4-6A2, manufactured by PharMingen Company) at 4° C., to coat the plate. Each well was washed with phosphate buffered physiologic saline (PBS). The well after washing was blocked by incubation at 37° C. for 2 hours in FCS-containing RPMI1640 medium.
Fresh CD8-positive cells (1×10^5 cells/well) derived from the immunized mice and CD8-negative cells (1×10^6 cells/well) pulsed with various peptides were seeded to each well and regulated so as to have a final volume of 200 μl. Then, the cells were cultured at 37° C. for 22 hours. Thereafter, the cells were washed sufficiently with PBS containing 0.05 wt % Tween™ 20 (referred to as “PBS-Tween”). Two hundreds microliters of 1.25 μg/milliliter biotinylated anti-mouse IFN-gamma mAb (trade name, manufactured by PharMingen Company) was added to the cells after washing, and the cells were then cultured overnight at 4° C. The cells thus obtained were washed with PBS-Tween. One hundred microliters of 1 μg/milliliter streptavidin-alkaline phosphatase conjugate (trade name, manufactured by Mabtech Ltd.) was added to the cells after washing. […] Then, the plate was dried and spots were counted. […]

[2] = test system: CD8-positive cells derived from immunized HHDA2402+/−β2m−/− mice; assay: IFN-gamma ELISPOT assay (mice), gene gun-immunized HLA-A2402 transgenic mice; assay type: cell-based, mouse; settings: HHDA2402 mice immunized twice by gene gun with plasmid of the parent antigen; CD8-negative cells pulsed with peptide as target cells; FIG. 1A-1C
Description: A DNA construct (HHDA2402) containing an HLA-A2402 leader sequence, human β2 microglobulin, HLA-A2402 α1 and α2 domains, an H-2D^b α3 transmembrane domain, and a cytoplasm domain was constructed. The resulting construct was cloned into an expression vector pcDNA 3.1 (manufactured by Invitrogen Corporation). The HHDA2402 construct (4 kb SalI-NotI fragment) was injected into fertilized eggs of C57BL/6 mice, to give HHDA2402-expressing mice. Then, the […] mice were bred with β2m−/− mice (manufactured by The Jackson Laboratory). The resulting HHDA2402+/−β2 m+/− were bred with β2m−/− mice to give HHDA2402+/−β2m−/− mice (referred to hereinafter as “HHDA2402 mice”).
Using Helios Gene Gun System (trade name, manufactured by Bio-Rad Laboratories, Inc.), gold particles coated with plasmid DNA were administered endoabdominally at a helium pressure of from 350 to 400 psi into HHDA2402 mice (6-to 8-week-old, female). The gold particles were prepared according to a manufacturer's manual. After 2 weeks, booster administration was carried out. After 1 week, spleen cells were collected.
One week after the final immunization, MACS system (trade name, manufactured by Mitlenyi Biotec) using CD8 alpha (Lyt 2) microbeads was used, to select CD8-positive T cells. The purity of the resulting T cell fraction analyzed by flow cytometry was 95% or more.
as §1
Fresh CD8-positive cells (1×10^5 cells/well) derived from the immunized mice and CD8-negative cells (1×10^6 cells/well) pulsed with various peptides were seeded to each well and regulated so as to have a final volume of 200 μl. Then, the cells were cultured at 37° C. for 22 hours. Thereafter, the cells were washed sufficiently with PBS containing 0.05 wt % Tween™ 20 (referred to as “PBS-Tween”). Two hundreds microliters of 1.25 μg/milliliter biotinylated anti-mouse IFN-gamma mAb (trade name, manufactured by PharMingen Company) was added to the cells after washing, and the cells were then cultured overnight at 4° C. The cells thus obtained were washed with PBS-Tween. One hundred microliters of 1 μg/milliliter streptavidin-alkaline phosphatase conjugate (trade name, manufactured by Mabtech Ltd.) was added to the cells after washing. Thereafter, the resulting mixture was incubated at room temperature for 90 minutes, to carry out reaction. The resulting product was washed with PBS-Tween and then stained with an alkaline phosphatase conjugate substrate kit (trade name, manufactured by Bio-Rad Laboratories, Inc.). Thereafter, the product after staining was washed with distilled water to terminate the reaction. Then, the plate was dried and spots were counted.
HHDA2402 mice were immunized with an expression plasmid carrying EB virus-derived EBNA 3A gene by a gene gun. After immunized twice, spleen-derived CD8+ T cells were prepared. CD8-negative cells pulsed with the EBNA 3A246-254 peptide were used as target cells, to carry out ELISPOT assay. […]

[3] = test system: human bulk CTLs sensitized with mRNA-introduced autologous CD4+ PHA blast cells; assay: IFN-γ ELISPOT assay (human) with peptide-pulsed T2A24 cells; assay type: cell-based
Description: On the 0th day, PHA (trade name: HA15, manufactured by Murex S.A.) was added to the medium in each well of the plate at a final concentration of 10 μg/milliliter. On the 3rd day, half amount of the medium was exchanged with the above medium containing IL-2 (20 U/milliliter) and IL-7 (40 ng/milliliter). Exchange of the medium was repeated every 3 days, whereby activated CD4-positive cells were obtained. The mRNA was introduced by electroporation into the activated CD4-positive cells at 14 to 28 days after culture was initiated. The resulting cells were used below as antigen-presenting cells.
MACS CD8 Microbeads (trade name, manufactured by Miltenyi Biotec) were used, to separate CD8+ T cells from PBMC. The number 5×10^5 cells of CD8+ T cells thus obtained were stimulated with radiation (30 Gy)-irradiated 1×10^5 mRNA-introduced CD4+ PHA blast cells in a 96-well round plate (manufactured by Nunc Corporation). After 7 days, the CD8+ T cells were stimulated again with radiation (30 Gy)-irradiated 1×10^5 mRNA-introduced CD4+ PHA blast cells, and then cultured in an IL-2 (20 IU/milliliter)-containing RPMI1640 medium for 7 days.
To amplify the sensitized CD8+ T cell group containing the antigen-specific CTLs, autologous LCLs (5×10^6 cells) into which the target antigen mRNA was introduced, autologous PBMCs (2.5×10^7 cells), and IL-2 (20 IU/milliliter) were added to the sensitized CD8+ T cell group. The resulting mixture was cultured in the absence of anti-CD3 antibody in a 25-milliliter flask (manufactured by Corning Incorporated).
A 96-well nitrocellulose ELISPOT plate (trade name: MAHA 54510, manufactured by Millipore Corporation) was coated by overnight incubation at 4° C. with 2 μg/milliliter antihuman IFN-γ mAb (trade name: 1-D1K). Each well was washed with PBS, and then blocked by incubation at 37° C. for 2 hours with RPMI1640 medium containing 10 wt % human AB serum. Effector cells (2×10^4 cells/well) and peptide-pulsed T2A24 cells (5×10^4 cells/well) were seeded to each well. […] Then, the plate was dried and spots were counted.

[4] = test system: CD8+ cells from HLA-A2402-positive healthy normal volunteers; assay: In vitro induction of human CTLs using CD8− PBMC pulsed with a peptide; assay type: cell-based; settings: one stimulation with CD8-negative PBMC pulsed with 10 μM peptide; 10 days after mixed lymphocyte reaction in vitro
Description: The number 1×10^7 of CD8-negative PBMC were pulsed with 10 μM peptide by incubation at room temperature for 1 hour and at 37° C. in 5% CO2 for 1 hour, in 200 μl RPMI1640 medium containing 25 mM Hepes, 10 wt % inactivated human AB-positive serum, 2 mM L-glutamine, 100 U/milliliter penicillin, and 100 μg/milliliter streptomycin. The resulting cells were used as antigen-presenting cells. The number 5×10^5 of CD8+ T cells that were separated were then stimulated by incubation for from 10 to 12 days with 1×10^6 cells of the peptide-pulsed CD8− PBMC. On Days 1, 4 and 7, half amount of the medium was exchanged with fresh one, and human IL-2 (20 IU/milliliter) and IL-7 (50 ng/milliliter) were added thereto. Culturing for induction was conducted in 200 μl RPMI1640 medium (containing 25 mM Hepes, 10 wt % inactivated human AB serum, 2 mM L-glutamine, 100 U/milliliter penicillin, 100 μg/milliliter streptomycin). […]
In staining, sensitized CD8+ T cells were reacted with 20 μg/milliliter tetramer at 37° C. for 30 minutes, and then reacted with a tricolor anti-CD8 monoclonal antibody (trade name, Caltag Laboratories, Burlingame, Calif., USA) on ice for 15 minutes. After washing, the stained cells were analyzed by flow cytometry (trade name: FACSCalibur, manufactured by Becton Dickinson, and Company). […]

Sequence | peptide-specific CTL response in ELISPOT assay [1] | peptide-specific CTL response in ELISPOT assay (immunogenicity of peptide) [2] | IFN-γ release in ELISPOT with peptide-pulsed T2A24 as target cell ([3]; T2A24 pulsed with SAGE715-723, control HER263-71, FIG. 4C) | induction of peptide-specific bulk CTLs, IFN-γ ELISPOT ([3]; stimulation twice with CD4+ blast cells with truncated SAGE mRNA, T2A24 pulsed with peptide vs control peptide, FIG. 4A) | HLA-A2402+ healthy normal humans in whom SAGE715-723 HLA-A24 tetramer-positive T cells were detected [4] | IFN-γ ELISPOT reaction to T2A24 cells pulsed with peptide ([3]; MAGE-A4-specific bulk CTLs amplified with mRNA-introduced autologous LCL, autologous PBMC and IL-2, FIG. 2 panel B)
VYGEPRKLL (listed as Homo sapiens) [MAGE-A4239-247] | positive | positive |  |  |  | 
LYKPDSNEF (listed as Homo sapiens) [SAGE776-784] | positive | positive |  |  |  | 
LYATVIHDI (listed as Homo sapiens) [SAGE715-723] |  | positive | IFN-γ was released | specific bulk CTLs were inducted | three out of six | 
RYSIFFDYM (Epstein-Barr virus) [EBNA3A246-254, reference compound] |  | peptide-specific CTLs were detected |  |  |  | 
NYKRCFPVI (listed as Homo sapiens) [MAGE-A4143-151] |  | positive |  |  |  | reaction specific
